Source: ChEMBL document CHEMBL3885861, “Open TG-GATES”

Species on record: Rattus norvegicus
Test: Open TG-GATES - Regimen: Daily Repeat
Format: toxicity, organism-based, Sprague-Dawley
Parameters: regimen Daily Repeat, gender Male, age 6 weeks
Conditions: in vivo, po, 100 mg/kg, route gavage, dose level High; for APTT / Bas / Eos / Fbg / Hb / Ht / Lym / MCH / MCHC / MCV / Mono / Neu / PT / Plat / RBC / Ret / WBC: tissue Blood; for KIDNEY_L / KIDNEY_R / KIDNEY_TOTAL: tissue Kidney; for LIVER: tissue Liver; for A/G / ALP / ALT / AST / BUN / CRE / Ca / Cl / DBIL / GLC / IP / K / LDH / Na / PL / RALB / TBIL / TC / TG / TP / gamma-GTP: tissue Plasma

CCC1(c2ccccc2)C(=O)NC(=O)NC1=O [PHENOBARBITAL]
TERMINAL_BW (72 h, time 3 day): 223.9 g
APTT (72 h, time 3 day): 15.7 s
Bas (72 h, time 3 day): 0%
Eos (72 h, time 3 day): 0.4%
Fbg (72 h, time 3 day): 214.6 mg/dL
Hb (72 h, time 3 day): 13.6 g/dL
Ht (72 h, time 3 day): 40.7%
Lym (72 h, time 3 day): 82.8%
MCH (72 h, time 3 day): 21.9 pg
MCHC (72 h, time 3 day): 33.3%
MCV (72 h, time 3 day): 65.9 fL
Mono (72 h, time 3 day): 6.8%
Neu (72 h, time 3 day): 10%
PT (72 h, time 3 day): 11.4 s
Plat (72 h, time 3 day): 115.9 x10_4/uL
RBC (72 h, time 3 day): 617.6 x10_4/ul
Ret (72 h, time 3 day): 6.6%
WBC (72 h, time 3 day): 159.6 x10_2/uL
KIDNEY_L (72 h, time 3 day): 1 g
KIDNEY_R (72 h, time 3 day): 1 g
KIDNEY_TOTAL (72 h, time 3 day): 2 g
LIVER (72 h, time 3 day): 14.1 g
A/G (72 h, time 3 day): 1.6
ALP (72 h, time 3 day): 945.6 IU/L
ALT (72 h, time 3 day): 37 IU/L
AST (72 h, time 3 day): 60.6 IU/L
BUN (72 h, time 3 day): 14.2 mg/dL
CRE (72 h, time 3 day): 0.5 mg/dL
Ca (72 h, time 3 day): 10.8 mg/dL
Cl (72 h, time 3 day): 104.6 meq/L
DBIL (72 h, time 3 day): 0.028 mg/dL
GLC (72 h, time 3 day): 188.6 mg/dL
IP (72 h, time 3 day): 8 mg/dL
K (72 h, time 3 day): 5.1 meq/L
LDH (72 h, time 3 day): 112.4 IU/L
Na (72 h, time 3 day): 137.4 meq/L
PL (72 h, time 3 day): 157.2 mg/dL
RALB (72 h, time 3 day): 3.6 g/dL
TBIL (72 h, time 3 day): 0.4 mg/dL
TC (72 h, time 3 day): 82.2 mg/dL
TG (72 h, time 3 day): 118.6 mg/dL
TP (72 h, time 3 day): 5.9 g/dL
gamma-GTP (72 h, time 3 day): 1 IU/L
TERMINAL_BW ([…], time 7 day): 257.9 g
TERMINAL_BW ([…], time 14 day): 304.3 g
TERMINAL_BW ([…], time 28 day): 378.9 g
APTT ([…], time 7 day): 16.7 s
Bas ([…], time 7 day): 0%
Eos ([…], time 7 day): 1%
Fbg ([…], time 7 day): 241.6 mg/dL
Hb ([…], time 7 day): 13.8 g/dL
Ht ([…], time 7 day): 41.4%
Lym ([…], time 7 day): 78.8%
MCH ([…], time 7 day): 22 pg
MCHC ([…], time 7 day): 33.4%
MCV ([…], time 7 day): 66 fL
Mono ([…], time 7 day): 7.4%
Neu ([…], time 7 day): 13%
PT ([…], time 7 day): 11.5 s
Plat ([…], time 7 day): 116.8 x10_4/uL
RBC ([…], time 7 day): 629.6 x10_4/ul
Ret ([…], time 7 day): 7.5%
WBC ([…], time 7 day): 104.3 x10_2/uL
APTT ([…], time 14 day): 17.5 s
Bas ([…], time 14 day): 0%
Eos ([…], time 14 day): 0%
Fbg ([…], time 14 day): 228.6 mg/dL
Hb ([…], time 14 day): 14.7 g/dL
Ht ([…], time 14 day): 43.9%
Lym ([…], time 14 day): 86%
MCH ([…], time 14 day): 20.7 pg
MCHC ([…], time 14 day): 33.4%
MCV ([…], time 14 day): 61.9 fL
Mono ([…], time 14 day): 4.2%
Neu ([…], time 14 day): 9.4%
PT ([…], time 14 day): 11.5 s
Plat ([…], time 14 day): 115.5 x10_4/uL
RBC ([…], time 14 day): 709.4 x10_4/ul
Ret ([…], time 14 day): 5%
WBC ([…], time 14 day): 166 x10_2/uL
APTT ([…], time 28 day): 19.1 s
Bas ([…], time 28 day): 0%
Eos ([…], time 28 day): 0.4%
Fbg ([…], time 28 day): 226.8 mg/dL
Hb ([…], time 28 day): 15.3 g/dL
Ht ([…], time 28 day): 46.1%
Lym ([…], time 28 day): 87.8%
MCH ([…], time 28 day): 19.8 pg
MCHC ([…], time 28 day): 33.2%
MCV ([…], time 28 day): 59.4 fL
Mono ([…], time 28 day): 2.2%
Neu ([…], time 28 day): 9.6%
PT ([…], time 28 day): 12.4 s
Plat ([…], time 28 day): 105.1 x10_4/uL
RBC ([…], time 28 day): 775.6 x10_4/ul
Ret ([…], time 28 day): 3%
WBC ([…], time 28 day): 170.6 x10_2/uL
KIDNEY_L ([…], time 7 day): 1.1 g
KIDNEY_R ([…], time 7 day): 1.1 g
KIDNEY_TOTAL ([…], time 7 day): 2.1 g
KIDNEY_L ([…], time 14 day): 1.2 g
KIDNEY_R ([…], time 14 day): 1.2 g
KIDNEY_TOTAL ([…], time 14 day): 2.4 g
KIDNEY_L ([…], time 28 day): 1.4 g
KIDNEY_R ([…], time 28 day): 1.4 g
KIDNEY_TOTAL ([…], time 28 day): 2.8 g
LIVER ([…], time 7 day): 17.1 g
LIVER ([…], time 14 day): 18.1 g
LIVER ([…], time 28 day): 20.8 g
A/G ([…], time 7 day): 1.5
ALP ([…], time 7 day): 717.2 IU/L
ALT ([…], time 7 day): 32.6 IU/L
AST ([…], time 7 day): 58.8 IU/L
BUN ([…], time 7 day): 18 mg/dL
CRE ([…], time 7 day): 0.6 mg/dL
Ca ([…], time 7 day): 11 mg/dL
Cl ([…], time 7 day): 106 meq/L
DBIL ([…], time 7 day): 0.054 mg/dL
GLC ([…], time 7 day): 199 mg/dL
IP ([…], time 7 day): 8.1 mg/dL
K ([…], time 7 day): 4.6 meq/L
LDH ([…], time 7 day): 145 IU/L
Na ([…], time 7 day): 140.4 meq/L
PL ([…], time 7 day): 160.2 mg/dL
RALB ([…], time 7 day): 3.8 g/dL
TBIL ([…], time 7 day): 0.4 mg/dL
TC ([…], time 7 day): 88.4 mg/dL
TG ([…], time 7 day): 71.6 mg/dL
TP ([…], time 7 day): 6.2 g/dL
gamma-GTP ([…], time 7 day): 1.6 IU/L
A/G ([…], time 14 day): 1.4
ALP ([…], time 14 day): 757.4 IU/L
ALT ([…], time 14 day): 32 IU/L
AST ([…], time 14 day): 65.4 IU/L
BUN ([…], time 14 day): 19.4 mg/dL
CRE ([…], time 14 day): 0.6 mg/dL
Ca ([…], time 14 day): 10.7 mg/dL
Cl ([…], time 14 day): 107.2 meq/L
DBIL ([…], time 14 day): 0.004 mg/dL
GLC ([…], time 14 day): 180 mg/dL
IP ([…], time 14 day): 8.4 mg/dL
K ([…], time 14 day): 4.2 meq/L
LDH ([…], time 14 day): 151.2 IU/L
Na ([…], time 14 day): 141.4 meq/L
PL ([…], time 14 day): 156 mg/dL
RALB ([…], time 14 day): 3.9 g/dL
TBIL ([…], time 14 day): 0.4 mg/dL
TC ([…], time 14 day): 91.4 mg/dL
TG ([…], time 14 day): 60.4 mg/dL
TP ([…], time 14 day): 6.5 g/dL
gamma-GTP ([…], time 14 day): 1.4 IU/L
A/G ([…], time 28 day): 1.4
ALP ([…], time 28 day): 536 IU/L
ALT ([…], time 28 day): 34.6 IU/L
AST ([…], time 28 day): 64.6 IU/L
BUN ([…], time 28 day): 21.2 mg/dL
CRE ([…], time 28 day): 0.4 mg/dL
Ca ([…], time 28 day): 10.7 mg/dL
Cl ([…], time 28 day): 106.2 meq/L
DBIL ([…], time 28 day): 0.014 mg/dL
GLC ([…], time 28 day): 180 mg/dL
IP ([…], time 28 day): 7.7 mg/dL
K ([…], time 28 day): 4.9 meq/L
LDH ([…], time 28 day): 138.8 IU/L
Na ([…], time 28 day): 141.6 meq/L
PL ([…], time 28 day): 144.8 mg/dL
RALB ([…], time 28 day): 4 g/dL
TBIL ([…], time 28 day): 0.4 mg/dL
TC ([…], time 28 day): 79.6 mg/dL
TG ([…], time 28 day): 76.2 mg/dL
TP ([…], time 28 day): 6.8 g/dL
gamma-GTP ([…], time 28 day): 2 IU/L
